# According to PMC3914206:
# Experiments:
# Type in all cases: binding
# [1] = molecular target: T1, panel of 442 kinases (Homo sapiens, UniProt P37173); conditions: kinase TGFBR2; compound concentration 10 µM
# T1 construct: purchased KINOMEscan
# From the text: (§1) We assessed the selectivity of members of this scaffold using the KINOMEscan methodology across a near comprehensive panel of 442 kinases [[18,27]].
# [2] = molecular target: T2, panel of 442 kinases (Homo sapiens, UniProt P19525); conditions: Compound Concentration 10 µM
# T2 construct: purchased KINOMEscan
# From the text: as §1
# [3] = molecular target: T3, panel of 442 kinases (Homo sapiens, UniProt Q15349); conditions: compound concentration 10 µM; for % Ctrl, RSK3(Kin.Dom.1-N-terminal): kinase RSK3(Kin.Dom.1-N-terminal); for % Ctrl, RSK3(Kin.Dom.2-C-terminal): kinase RSK3(Kin.Dom.2-C-terminal)
# T3 construct: purchased KINOMEscan
# From the text: as §1
# T3 sequence (Q15349 whole entry): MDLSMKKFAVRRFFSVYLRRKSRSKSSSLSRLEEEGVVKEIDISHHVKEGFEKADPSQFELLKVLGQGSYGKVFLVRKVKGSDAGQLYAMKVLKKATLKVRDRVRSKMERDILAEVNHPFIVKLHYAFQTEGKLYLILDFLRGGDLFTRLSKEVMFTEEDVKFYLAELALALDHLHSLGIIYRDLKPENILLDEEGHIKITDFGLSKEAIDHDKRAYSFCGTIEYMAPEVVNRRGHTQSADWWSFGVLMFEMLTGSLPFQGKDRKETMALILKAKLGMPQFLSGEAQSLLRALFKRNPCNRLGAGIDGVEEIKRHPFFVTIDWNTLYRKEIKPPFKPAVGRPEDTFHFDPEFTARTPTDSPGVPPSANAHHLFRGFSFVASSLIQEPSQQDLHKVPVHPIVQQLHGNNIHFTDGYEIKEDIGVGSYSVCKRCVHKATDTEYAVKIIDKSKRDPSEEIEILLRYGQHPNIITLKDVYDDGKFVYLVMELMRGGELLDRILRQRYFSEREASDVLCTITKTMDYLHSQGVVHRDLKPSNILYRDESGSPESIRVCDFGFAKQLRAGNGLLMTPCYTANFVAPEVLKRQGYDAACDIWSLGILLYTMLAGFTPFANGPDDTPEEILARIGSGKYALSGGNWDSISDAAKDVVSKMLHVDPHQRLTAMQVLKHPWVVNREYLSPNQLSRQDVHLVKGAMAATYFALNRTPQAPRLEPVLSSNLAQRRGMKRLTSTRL
# T1 sequence (P37173 23-567): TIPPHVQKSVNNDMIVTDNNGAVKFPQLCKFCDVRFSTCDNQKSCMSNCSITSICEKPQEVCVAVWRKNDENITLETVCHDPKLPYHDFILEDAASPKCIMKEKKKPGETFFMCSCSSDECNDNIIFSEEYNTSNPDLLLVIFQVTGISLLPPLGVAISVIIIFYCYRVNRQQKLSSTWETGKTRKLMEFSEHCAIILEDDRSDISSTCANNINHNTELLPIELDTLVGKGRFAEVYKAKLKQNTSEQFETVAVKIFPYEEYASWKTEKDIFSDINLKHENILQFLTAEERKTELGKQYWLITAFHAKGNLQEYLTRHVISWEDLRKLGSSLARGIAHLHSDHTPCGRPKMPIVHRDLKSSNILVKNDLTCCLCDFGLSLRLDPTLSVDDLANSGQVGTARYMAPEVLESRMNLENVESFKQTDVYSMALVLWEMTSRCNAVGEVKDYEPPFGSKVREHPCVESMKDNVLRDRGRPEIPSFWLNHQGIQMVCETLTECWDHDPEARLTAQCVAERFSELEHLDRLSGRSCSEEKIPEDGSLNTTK
# T2 sequence (P19525 whole entry): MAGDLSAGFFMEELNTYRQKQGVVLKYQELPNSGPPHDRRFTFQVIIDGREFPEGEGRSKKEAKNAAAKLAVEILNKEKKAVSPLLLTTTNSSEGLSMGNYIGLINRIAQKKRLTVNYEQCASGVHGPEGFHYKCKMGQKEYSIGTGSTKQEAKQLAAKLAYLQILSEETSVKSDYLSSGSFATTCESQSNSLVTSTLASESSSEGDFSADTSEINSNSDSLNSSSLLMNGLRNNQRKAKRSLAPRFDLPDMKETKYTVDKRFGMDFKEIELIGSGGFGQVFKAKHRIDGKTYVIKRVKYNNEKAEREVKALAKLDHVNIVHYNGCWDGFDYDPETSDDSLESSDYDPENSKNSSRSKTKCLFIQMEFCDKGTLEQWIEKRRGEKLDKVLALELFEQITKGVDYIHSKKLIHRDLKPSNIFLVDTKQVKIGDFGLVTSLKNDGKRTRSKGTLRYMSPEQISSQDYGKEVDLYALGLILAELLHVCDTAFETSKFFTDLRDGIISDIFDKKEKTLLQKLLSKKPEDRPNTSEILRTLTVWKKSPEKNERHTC
Compound,"% Ctrl, TGFBR2 [1]",KINOMEscan: PRKR [2],"% Ctrl, RSK3(Kin.Dom.1-N-terminal) [3]","% Ctrl, RSK3(Kin.Dom.2-C-terminal) [3]"
CCOc1cc(C(=O)N2CCC(N3CCN(C)CC3)CC2)ccc1Nc1ncc2c(n1)N(C1CCCC1)c1ccccc1C(=O)N2C [Compound 26],100 % Ctrl,97,100 % Ctrl,83 % Ctrl
"COc1cc(C(=O)N2CCC(N3CCN(C)CC3)CC2)ccc1Nc1ncc2c(n1)N(C1CCCC1)c1ccccc1C(=O)N2C [Compound 25, 11-cyclopentyl-2-((2-methoxy-4-(4-(4-methylpiperazin-1-yl)piperidine-1-carbonyl)phenyl)amino)-5-methyl-5H-benzo[e]pyrimido[5,4-b][1,4]diazepin-6(11H)-one]",100 % Ctrl,71,100 % Ctrl,78 % Ctrl
COc1cc(C(=O)N2CCC(N3CCN(C)CC3)CC2)ccc1Nc1ncc2c(n1)N1CCc3cccc(c31)C(=O)N2C [Compound 24],100 % Ctrl,33,100 % Ctrl,13 % Ctrl
COc1cc(C(=O)N2CCC(N3CCN(C)CC3)CC2)ccc1Nc1ncc2c(n1)N(C)c1ccccc1C(=O)N2C [15 (LRRK2-IN-1)],100 % Ctrl,84,83 % Ctrl,7.5 % Ctrl
